The subject of one assay is BMAL1. Nature of the assay: BMAL1 mRNA and protein, synchronized U2-OS cells. The format is cell-based, human. The note with it: 10 μM. As for the experimental part: (§1) Cells were lysed in RIPA buffer (50 mM Tris, 150 mM NaCl, 1% Triton-X, 0.1% SDS) with fresh Protease inhibitor cocktail (PIC). After centrifugation at 13000 rpm for 15 minutes at 4° C., supernatant was used to determine the protein amount using Pierce Protein Assay (Thermo Scientific) according to the manufacturer's instruction. Mice liver samples were homogenized and lysed with Dounce homogenizer and RIPA buffer. After homogenization samples were incubated 10 minutes on ice. After centrifugation 13000 rpm 15 minutes at 4° C. supernatant was used for the whole cell lysate. Subcellular fractionation of liver samples: Liver samples were homogenized with cytosolic lysis buffer (10 mM HEPES pH 7.9, 10 mM KCl, 0.1 mM EDTA, 0.05% NP40, proteasome inhibitor) by pipetting 40 times with a cut tip. Then samples were incubated 10 minutes on ice and centrifuged for 3 minutes at 3000 rpm at 4° C. Supernatant was saved in a new tube, and pellet was processed for the nuclear fraction. […] ECL buffer system (Advansta WesternBright) was used to visualize HRP chemi-luminescence via BioRad ChemiDoc Touch visualizer.
QIAGEN RNeasy Mini Kit was used to isolate the mRNA. […] Quantity of RNA was determined by Nanodrop 2000 (Thermo Scientific). […] For quantitative real time PCR (qRT-PCR) analysis cDNAs were further diluted 5-fold (1:5). mRNA expression levels were calculated by qRT-PCR with the SYBR Green. […]

A further assay concerns CRY2. Put plainly: Protein immunoblot, synchronized U2-OS cells, CRY2. It counts as cell-based, human. The note with it: 10 μM, 80-92 h. As for the experimental part: FIGS. 3A-3G are an illustration of FORMULA I decreased CRY1 level in synchronized U2-OS cells. Confluent U2-OS cells were synchronized by 2 h treatment with dexamethasone ([…]) and medium replaced with fresh medium containing FORMULA I or solvent (DMSO final 0.5%). Cells were harvested at indicated time points. FIGS. 3A-3B show lysed cells were analyzed via protein immunoblot technique. […] CRY levels in DMSO control divided by that of in FORMULA I treated samples were reported (mean±SEM, n=4). FIGS. 3C-3G show cells were subjected to reverse-transcription-quantitative polymerase chain reaction (RT-qPCR). […] Expression level of genes was normalized according to the expression level of that gene at 72ndh. (Data represent the mean±SEM, n=3 with duplicates ***: p<0.001 **: p<0.005, *: p<0.05 versus DMSO control by two-way ANOVA).
Cells were lysed in RIPA buffer (50 mM Tris, 150 mM NaCl, 1% Triton-X, 0.1% SDS) with fresh Protease inhibitor cocktail (PIC). After centrifugation at 13000 rpm for 15 minutes at 4° C., supernatant was used to determine the protein amount using Pierce Protein Assay (Thermo Scientific) according to the manufacturer's instruction. Mice liver samples were homogenized and lysed with Dounce homogenizer and RIPA buffer. […] ECL buffer system (Advansta WesternBright) was used to visualize HRP chemi-luminescence via BioRad ChemiDoc Touch visualizer. […]

The target of a further assay is T1, CRY1 (Homo sapiens, UniProt Q16526).
T1 construct: To evaluate the effect of FORMULA I on the endogenous protein and mRNA level of clock genes; endogenous in cells; host or cells: U2-OS
T1 sequence (Q16526 1-586): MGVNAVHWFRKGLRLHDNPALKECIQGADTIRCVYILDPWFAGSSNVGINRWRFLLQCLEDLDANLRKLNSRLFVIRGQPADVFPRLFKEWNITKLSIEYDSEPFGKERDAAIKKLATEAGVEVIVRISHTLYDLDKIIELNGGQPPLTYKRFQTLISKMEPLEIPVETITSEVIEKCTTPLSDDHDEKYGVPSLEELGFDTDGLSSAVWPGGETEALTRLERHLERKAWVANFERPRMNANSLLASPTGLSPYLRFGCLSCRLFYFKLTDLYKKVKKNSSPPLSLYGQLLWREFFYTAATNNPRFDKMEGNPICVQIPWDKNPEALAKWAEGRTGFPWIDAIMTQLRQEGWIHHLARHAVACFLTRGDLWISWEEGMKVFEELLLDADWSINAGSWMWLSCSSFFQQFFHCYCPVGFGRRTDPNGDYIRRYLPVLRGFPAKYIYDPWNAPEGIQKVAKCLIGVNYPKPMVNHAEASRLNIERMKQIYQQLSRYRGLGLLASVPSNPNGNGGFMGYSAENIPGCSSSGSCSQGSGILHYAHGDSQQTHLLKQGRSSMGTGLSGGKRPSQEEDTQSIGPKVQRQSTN
Nature of the assay: Protein immunoblot, unsynchronized U2-OS cells, CRY1. The format is cell-based. To be noted: Western blot. As for the experimental part:
as §1, with “fraction. Supernatant was centrifuged at 13000 rpm for 3 minutes at 4° C. where new supernatant saved as the cytosolic fraction.” for “fraction.”
A general note: Immunoblotting shows a protein as a band on a membrane.

One molecule from patent US20230104487A1, “11-(4-CHLOROPHENYL)-4-(2,3-DIHYDRO-1H-INDOLE-1-CARBONYL)-3,11-DIMETHYL-5,10,DIOXATRICYCLO[7.4.0.0,2,6,]TRIDECA-1,3,6,8-TETRAEN-13-ONE AND DERIVATIVES AS DESTABILIZER OF CRY1 FOR THE TREATMENT OF CIRCADIAN RHYTHM ASSOCIATED DISEASES AND DISORDERS” (KOC UNIVERSITESI, priority 2019, published 2023) can be followed below.

“Also recorded” adds a separate entry of the source.

`Cc1c(C(=O)N2CCc3ccccc32)oc2ccc3c(c12)C(=O)CC(C)(c1ccc(Cl)cc1)O3` (stereo not drawn) [FORMULA I, 11-(4-chlorophenyl)-4-(2,3-dihydro-1H-indole-1-carbonyl)-3,11-dimethyl-5,10,dioxatricyclo[7.4.0.0,2,6,]trideca-1,3,6,8-tetraen-13-one]: the “mRNA and protein levels of BMAL1” value in the assay with BMAL1 was “Decreased mRNA and protein levels of BMAL1”. Also, in the assay with CRY2, the CRY2 protein level entry is “increased CRY2 levels; also recorded: increased the level of CRY2”. The “steady-state level of CRY1” value at CRY1 is “level of CRY1 reduced; also recorded: decreased the steady-state level of CRY1”.
